Legend:
Format in all cases: cell-based
CCRF-CEM = experiment: Cytotoxicity against human CCRF-CEM cells assessed as effect on cell growth at 10 uM incubated for 48 hrs by sulforhodamine B assay
RPMI-8226 = experiment: Cytotoxicity against human RPMI8226 cells assessed as effect on cell growth at 10 uM incubated for 48 hrs by sulforhodamine B assay; conditions: rpmi-8226, 48 h
HL-60(TB) = experiment: Cytotoxicity against human HL-60(TB) cells assessed as effect on cell growth at 10 uM incubated for 48 hrs by sulforhodamine B assay
NCI-H460 = experiment: Cytotoxicity against human NCI-H460 cells assessed as effect on cell growth at 10 uM incubated for 48 hrs by sulforhodamine B assay; conditions: nci-h460, 48 h
HCT-116 = experiment: Cytotoxicity against human HCT116 cells assessed as effect on cell growth at 10 uM incubated for 48 hrs by sulforhodamine B assay; conditions: hct-116, 48 h
KM12 = experiment: Cytotoxicity against human KM12 cells assessed as effect on cell growth at 10 uM incubated for 48 hrs by sulforhodamine B assay; conditions: km12, 48 h
SF-295 = experiment: Cytotoxicity against human SF295 cells assessed as effect on cell growth at 10 uM incubated for 48 hrs by sulforhodamine B assay; conditions: sf-295, 48 h
SNB-75 = experiment: Cytotoxicity against human SNB75 cells assessed as effect on cell growth at 10 uM incubated for 48 hrs by sulforhodamine B assay; conditions: snb-75, 48 h
U-251 = experiment: Cytotoxicity against human U251 cells assessed as effect on cell growth at 10 uM incubated for 48 hrs by sulforhodamine B assay; conditions: u-251, 48 h
LOX IMVI = experiment: Cytotoxicity against human LOXIMVI cells assessed as effect on cell growth at 10 uM incubated for 48 hrs by sulforhodamine B assay
Malme-3M = experiment: Cytotoxicity against human MALME-3M cells assessed as effect on cell growth at 10 uM incubated for 48 hrs by sulforhodamine B assay
UACC-257 = experiment: Cytotoxicity against human UACC257 cells assessed as effect on cell growth at 10 uM incubated for 48 hrs by sulforhodamine B assay; conditions: uacc-257, 48 h
IGROV-1 = experiment: Cytotoxicity against human IGROV1 cells assessed as effect on cell growth at 10 uM incubated for 48 hrs by sulforhodamine B assay; conditions: igrov-1, 48 h
OVCAR-3 = experiment: Cytotoxicity against human OVCAR3 cells assessed as effect on cell growth at 10 uM incubated for 48 hrs by sulforhodamine B assay; conditions: ovcar-3, 48 h
OVCAR-4 = experiment: Cytotoxicity against human OVCAR4 cells assessed as effect on cell growth at 10 uM incubated for 48 hrs by sulforhodamine B assay; conditions: ovcar-4, 48 h
NCI/ADR-RES = experiment: Cytotoxicity against human NCI/ADR-RES cells assessed as effect on cell growth at 10 uM incubated for 48 hrs by sulforhodamine B assay
ACHN = experiment: Cytotoxicity against human ACHN cells assessed as effect on cell growth at 10 uM incubated for 48 hrs by sulforhodamine B assay
PC-3 = experiment: Cytotoxicity against human PC3 cells assessed as effect on cell growth at 10 uM incubated for 48 hrs by sulforhodamine B assay; conditions: pc-3, 48 h
T47D = experiment: Cytotoxicity against human T47D cells assessed as effect on cell growth at 10 uM incubated for 48 hrs by sulforhodamine B assay
MDA-MB-468 = experiment: Cytotoxicity against human MDA-MB-468 cells assessed as effect on cell growth at 10 uM incubated for 48 hrs by sulforhodamine B assay; conditions: mda-mb-468, 48 h

Measured: Activity

O=C(NCC1CCCCC1)[C@@H]1CCC(=O)N1c1ccccc1
Non-Toxic: all assays above

CN(C)/C=C1\C[C@H]2C(=O)N(Cc3ccc(Cl)cc3Cl)C(N(C)C)N2C1=O (stereo not given in full)
Non-Toxic: all assays above

O=C(NCc1ccccc1)[C@@H]1CCC(=O)N1Cc1ccc(Cl)cc1Cl
Non-Toxic: all assays above

COc1ccc(NC(=O)[C@@H]2CCC(=O)N2)cc1OC
Non-Toxic: all assays above

Source: ChEMBL document CHEMBL4627246, “Pyroglutamide-Based P2X7 Receptor Antagonists Targeting Inflammatory Bowel Disease” (J Med Chem, 2020)
